According to patent US9980943B2, “Methods of treating muscular dystrophy” (BOARD OF REGENTS OF THE NEVADA SYSTEM OF HIGHER EDUCATION, …, priority 2013, dated 2018):

Columns and labels:
Format in all cases: cell-based, mouse
[1] = test system: α7 integrin (LacZ reporter in α7βgal+/− myoblasts); assay: Myoblast α7+/LacZ integrin FDG assay (Burkin assay in myoblasts, 96-well); conditions: α7+/LacZ myoblasts, 96-well
[2] = test system: α7 integrin (LacZ reporter in α7+/LacZ myotubes); assay: Myotube α7 integrin FDG assay (Burkin assay in myotubes, 96-well); conditions: myotubes
[3] = test system: β-galactosidase in CMV-LacZ C2C12 myotubes; assay: CMV-LacZ secondary screen in C2C12 myotubes (β-Gal stabilizing assay); conditions: C2C12 CMV-LacZ myotubes, fold relative to DMSO
Outline: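 CMV-LacZ C2C12 line (clonal, FDG-screened); myoblasts/myotubes dosed 0.5–40 μM (0.5, 1, 5, 10, 20, 40 μM); n=2 per point; β-gal stabilization read-out.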

Compound	Burkin Assay in Myoblasts, value relative to DMSO ([1]; 0.5 uM)	Burkin Assay in Myoblasts, value relative to DMSO ([1]; 1 uM)	Burkin Assay in Myoblasts, value relative to DMSO ([1]; 5 uM)	Burkin Assay in Myoblasts, value relative to DMSO ([1]; 10 uM)	CMV-LACZ in Myotubes, signal relative to DMSO ([3]; 5 uM)	CMV-LACZ in Myotubes, signal relative to DMSO ([3]; 10 uM)	CMV-LACZ in Myotubes, signal relative to DMSO ([3]; 20 uM)	CMV-LACZ in Myotubes, signal relative to DMSO ([3]; 40 uM)	Burkin Assay in Myoblasts, signal relative to DMSO ([1]; 0.5 uM)	Burkin Assay in Myoblasts, signal relative to DMSO ([1]; 1 uM)	Burkin Assay in Myoblasts, signal relative to DMSO ([1]; 5 uM)	Burkin Assay in Myoblasts, signal relative to DMSO ([1]; 10 uM)	Burkin Assay in Myoblasts, signal relative to DMSO ([1]; 20 uM)	Burkin Assay in Myoblasts, signal relative to DMSO ([1]; 40 uM)	Burkin Assay in Myotubes, α7 integrin LacZ reporter signal relative to DMSO ([2]; 0.5 uM)	Burkin Assay in Myotubes, α7 integrin LacZ reporter signal relative to DMSO ([2]; 1 uM)	Burkin Assay in Myotubes, α7 integrin LacZ reporter signal relative to DMSO ([2]; 5 uM)	Burkin Assay in Myotubes, α7 integrin LacZ reporter signal relative to DMSO ([2]; 10 uM)	Burkin Assay in Myotubes, α7 integrin LacZ reporter signal relative to DMSO ([2]; 20 uM)	Burkin Assay in Myotubes, α7 integrin LacZ reporter signal relative to DMSO ([2]; 40 uM)	other results
Cc1ccccc1C(=O)Nc1scc(-c2ccc(Br)cc2)c1C(=O)O [MLS001179267-01]	0.983	1.031	0.9797	0.9902	0.9091	0.8244	0.6141	0.5554													Burkin Assay in Myoblasts, value relative to DMSO ([1]; 20 uM): 0.9305; Burkin Assay in Myoblasts, value relative to DMSO ([1]; 40 uM): 0.95; Burkin Assay in Myotubes (signal relative to DMSO) ([2]; 0.5 uM): 0.947; Burkin Assay in Myotubes (signal relative to DMSO) ([2]; 1 uM): 0.8787; Burkin Assay in Myotubes (signal relative to DMSO) ([2]; 5 uM): 0.8908; Burkin Assay in Myotubes (signal relative to DMSO) ([2]; 10 uM): 0.559; Burkin Assay in Myotubes (signal relative to DMSO) ([2]; 20 uM): 0.8589; Burkin Assay in Myotubes (signal relative to DMSO) ([2]; 40 uM): 0.5111
COc1ccccc1C(=O)NCCOc1ccc(C(C)(C)C)cc1 [MLS001179624-01]					0.8604	0.8788	0.452	0.4965	0.993	0.9963	0.9515	0.9314	0.879	0.8828	0.9052	0.9709	1.048	1.104	0.8903	0.2183	
CN(C)C1(CN=Cc2cc(Cl)cc([N+](=O)[O-])c2O)CCCCC1 [MLS001179695-01]					1.183	1.095	1.175	1.047	1.033	0.9441	0.8752	0.9871	0.8923	0.8068	1.053	0.949	1.199	0.9922	0.9298	0.8546	
CN(C)CCNc1ncnc2sc(-c3ccccc3)cc12 [MLS001179717-01]					1.084	0.8133	0.5748	0.4829	0.912	0.864	0.8357	0.6794	0.3052	0.05093	0.8788	1.027	0.744	0.6812	0.5137	0.2663	
CC(C)(CC(=O)O)CC(=O)N1CCCN(c2nccc(C(F)(F)F)n2)CC1 [MLS001181671-01]	1.052	0.965	0.8759	0.8638	0.8803	0.9201	1.03	0.9377													Burkin Assay in Myoblasts, value relative to DMSO ([1]; 20 uM): 0.8113; Burkin Assay in Myoblasts, value relative to DMSO ([1]; 40 uM): 0.891; Burkin Assay in Myotubes (signal relative to DMSO) ([2]; 0.5 uM): 1.071; Burkin Assay in Myotubes (signal relative to DMSO) ([2]; 1 uM): 0.9095; Burkin Assay in Myotubes (signal relative to DMSO) ([2]; 5 uM): 1.337; Burkin Assay in Myotubes (signal relative to DMSO) ([2]; 10 uM): 1.22; Burkin Assay in Myotubes (signal relative to DMSO) ([2]; 20 uM): 0.9854; Burkin Assay in Myotubes (signal relative to DMSO) ([2]; 40 uM): 0.9878
Oc1c(Br)cc(Br)cc1CNc1cccc2cccnc12 [MLS001183429-01]					0.8436	0.944	0.9105	0.5809	0.7592	0.6652	0.7821	0.7373	0.5666	0.3329	0.8042	0.823	0.8557	0.733	0.4076	0.2629	
CCOc1ccc(-n2c(C)c(C(=O)O)c3cc(OC)ccc32)cc1 [MLS001194551-01]	1.096	1.205	1.115	1.297	0.8273	0.9459	1.047	0.7809													Burkin Assay in Myoblasts, value relative to DMSO ([1]; 20 uM): 1.176; Burkin Assay in Myoblasts, value relative to DMSO ([1]; 40 uM): 1.392; Burkin Assay in Myotubes (signal relative to DMSO) ([2]; 0.5 uM): 1.0169; Burkin Assay in Myotubes (signal relative to DMSO) ([2]; 1 uM): 1.01; Burkin Assay in Myotubes (signal relative to DMSO) ([2]; 5 uM): 1.043; Burkin Assay in Myotubes (signal relative to DMSO) ([2]; 10 uM): 1.094; Burkin Assay in Myotubes (signal relative to DMSO) ([2]; 20 uM): 1.209; Burkin Assay in Myotubes (signal relative to DMSO) ([2]; 40 uM): 1.281
